For one assay, the system named is CB2 W5.43A/F mutations. The note with it: suggesting a misfolded protein; cited from earlier work.
The next assay deals with CB2 W5.43(194)Y mutation. Particulars: cited from earlier work.
A further assay has as its system CB2 S4.57(165)A mutation. Particulars: cited from earlier work.
For assay [1], the target named is HEK293 cells stably expressing CB2 (Homo sapiens, UniProt P34972). The format is cell-based. The note with it: 1 µM compound.
The next assay has as its system CB2 S4.53(161)A mutation. Particulars: cited from earlier work.
In assay [2] the test system is CB2 receptor-transfected Chinese hamster cells. The note with it: cited from earlier work.
A further assay has as its system CB1 S7.39A mutation. The note with it: cited from earlier work.
The target of another assay is human CB2 receptors (Homo sapiens, UniProt P34972). In kind it is binding. The note with it: ratio of Ki to Ki of 1.

Where “and” joins values, the source holds several entries; their conditions need not be identical. Identical values can stand only once. Entries after “also recorded” stand apart in the source; their conditions may differ.

HEK293 cells stably expressing CB2, sequence (P34972 whole entry): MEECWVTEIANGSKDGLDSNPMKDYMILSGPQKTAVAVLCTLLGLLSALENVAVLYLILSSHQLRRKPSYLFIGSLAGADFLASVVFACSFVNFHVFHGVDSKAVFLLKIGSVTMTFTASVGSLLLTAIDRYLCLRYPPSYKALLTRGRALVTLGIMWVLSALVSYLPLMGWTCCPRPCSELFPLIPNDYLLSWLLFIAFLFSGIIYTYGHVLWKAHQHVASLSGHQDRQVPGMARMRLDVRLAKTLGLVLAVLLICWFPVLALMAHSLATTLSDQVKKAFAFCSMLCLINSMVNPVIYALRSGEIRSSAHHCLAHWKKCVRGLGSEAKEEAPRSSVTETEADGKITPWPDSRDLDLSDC
human CB2 receptors, sequence (P34972 whole entry): as above

As for `Cc1ccc(Cn2nc(C(=O)N[C@@H]3C(C)(C)[C@@H]4CC[C@@]3(C)C4)cc2-c2ccc(Cl)c(C)c2)cc1` [Compound 1, N-[(1S)-endo-1,3,3-trimethylbicyclo[2.2.1]heptan2-yl]-5-(4-chloro-3-methylphenyl)-1-[(4-methylphenyl)methyl]-1H-pyrazole-3-carboxamide], the “effect of mutation on binding” value in the assay with CB2 W5.43A/F mutations is “no detectable binding”; with CB2 W5.43(194)Y mutation, “decrease in the binding”; in the assay on CB2 S4.57(165)A mutation, “abolished the binding”; with CB2 S4.53(161)A mutation, “abolished the binding”. The “antagonism of CP55940 effect in the cAMP assay” value (“antagonism of CP55940 effect” below) in assay [1] is listed as “antagonize the effects of CP-55,940; also recorded: antagonize the cAMP effects of CP55940”. Moreover, the “effect on high constitutive activity of CB2” value in assay [2] is recorded as “inverse agonist”.
In the case of `CCCCCCC(C)(C)c1cc(O)c2c(c1)OC(C)(C)[C@@H]1CC=C(CO)C[C@@H]21` [HU210], the “effect of mutation on binding” value in the assay with CB1 S7.39A mutation is on record as “reduction in binding”.
Regarding `Cc1cc(-c2cc(C(=O)N[C@@H]3C(C)(C)[C@@H]4CC[C@@]3(C)C4)nn2-c2ccccc2)ccc1Cl` [Compound 6, 5-(4-Chloro-3-methylphenyl)-1-phenyl-N-{1,3,3-trimethylbicyclo[2.2.1]heptan-2-yl}-1H-pyrazole-3-carboxamide], at human CB2 receptors, the “fold loss of CB2 affinity compared to 1” value turned out to be 42 fold. Moreover, the “antagonism of CP55940 effect” value in assay [1] was “no antagonism; also recorded: lack antagonist properties”.
As for `Cc1ccc(Cn2nc(C(=O)N[C@@H]3C[C@@H]4CC[C@@]3(C)C4(C)C)cc2-c2ccc(Cl)c(C)c2)cc1` [Compound 5, 5-(4-Chloro-3-methylphenyl)-1-[(4-methylphenyl)methyl]-N-[(1S,2R,4S)-1,7,7-trimethylbicyclo[2.2.1]heptan-2-yl]-1H-pyrazole-3-carboxamide], the “fold loss of CB2 affinity compared to 1” value at human CB2 receptors is 13 fold. Moreover, in assay [1], the “antagonism of CP55940 effect” value is “antagonize the cAMP effects of CP55940”.
On to `Cc1ccc(Cn2cc(/C=C/[C@@H]3C(C)(C)[C@@H]4CC[C@@]3(C)C4)cc2-c2ccc(Cl)c(C)c2)cc1` [Compound 4, 5-(4-Chloro-3-methylphenyl)-1-[(4-methylphenyl)methyl]-3-[(E)-2-[(1S,2S,4R)-1,3,3-trimethylbicyclo[2.2.1]heptan-2-yl]ethenyl]-1H-pyrrole], for which, at human CB2 receptors, the “fold loss of CB2 affinity compared to 1” value was determined as 547 fold. Besides, the “antagonism of CP55940 effect” value in assay [1] is “lack antagonist properties”.
In the case of `Cc1ccc(Cn2cc(C(=O)N[C@@H]3C(C)(C)[C@@H]4CC[C@@]3(C)C4)cc2-c2ccc(Cl)c(C)c2)cc1` [Compound 3, 5-(4-Chloro-3-methyl-phenyl)-1-(4-methyl-benzyl)-1H-pyrrole-3-carboxylic acid (1,3,3-trimethyl-bicyclo[2.2.1]hept-2-yl)-amide], on human CB2 receptors, the “fold loss of CB2 affinity compared to 1” value was 7 fold and 6.8 fold. Also, the “antagonism of CP55940 effect” value in assay [1] is reported as “more potent CB2 antagonist than 1; also recorded: antagonize the cAMP effects of CP55940”.
Consider `Cc1ccc(Cn2nc(/C=C/[C@@H]3C(C)(C)[C@@H]4CC[C@@]3(C)C4)cc2-c2ccc(Cl)c(C)c2)cc1` [Compound 2, 5-(4-Chloro-3-methylphenyl)-1-(4-methyl-benzyl)-3-[(E)-2-endo-(1,3,3-trimethyl-bicyclo[2.2.1]hept-2-yl)-vinyl]-1H-pyrazole], for which the “fold loss of CB2 affinity compared to 1” value at human CB2 receptors came to 236 fold. The “antagonism of CP55940 effect” value in assay [1] is given as “lack antagonist properties”.
On to `CCCCCCC(C)(C)c1ccc([C@@H]2C[C@H](O)CC[C@H]2CCCO)c(O)c1` [CP-55,940], for which the “effect of mutation on binding” value with CB1 S7.39A mutation is given as “loss of binding”.
